Measurements reported in patent US11820764B2, “Compound modulating GSK-3 activity” (National Institute of Immunology, priority 2020, dated 2023).

Experiments:
[1] = Blood brain barrier crossing, mass spectrometry of cerebrospinal fluid of treated mice; assay type: in vivo; settings: CSF of treated animals
[2] = Pharmacokinetics in rats, plasma HPLC; assay type: in vivo; settings: both sexes, rat, 15 ug/kg
Procedure: The rats were randomly divided into two groups (I and II) in half respectively male and female. A dose of 15 μg/kg of Compound Y was administered to group I and II. Serial blood samples (0.5 mL) were collected into heparinized tubes from the retro-orbital region at 1, 2, 4, 6, 12, 24, 36, 48, and 72 h. Samples were immediately centrifuged at 12,000 rpm for 10 min and stored at −20° C. until analysis. Plasma was processed for HPLC analysis. 100 μl Acetonitrile was added in 100 μl plasma (1:1) and centrifuge at 12,000 for 5 minute. Supernatant transferred in a clean tube. Dried under Nitrogen gas 200 μl Acetonitrile: water (1:1) was added in dry tube and centrifuge at 12,000 rpm for 15 minute. Filtered with 0.2 μm membrane filter. 20 μl samples were used for analysis in HPLC. […] (FIG. 5)

## O=C(O)CCCCCN1C(=O)/C(=C/c2c[nH]c3ccccc23)SC1=S [SG001]
[1]
  crossing of blood brain barrier (detection in CSF): able to cross the blood brain barrier
[2]
  Cmax: 27 nM
  Tmax: 48 h
